These results are taken from patent publication US5192760A, “3-carbalkoxyamino-5-(alpha-aminopropionyl)-5H-dibenz[b,f]azepines and method for their making” (priority 1989, dated 1993).

One may read the LD50 as the dose expected to kill half of the subjects tested. Usually ED50 stands for the dose at which the effect has come halfway, by size or by number of responders.

Like-named read-outs stand apart in the source and are kept apart here. A value given as a limit tells only on which side of the number the result lay.

Data set [1] in a line: in vivo. To be noted: Wistar rat, iv. in tail vein, p=0.05 confidence interval in parentheses. Set-up: species or system male or female Wistar rats. From the text:
LD50 iv. is the lethal dose in mg/kg body weight for 50% of the experimental animals of an orientating acute toxicity test on male or female Wistar rats of our own breed, iv. administration in the tail vein, 3-4 dosages, 10 animals per group. Data analyzed by the Probit regression analysis with a confidence interval of p=0.05 (values in parentheses).

A short description of data set [2]: in vivo. The format is in vivo, female Wistar rats. To be noted: in vivo. How it is done:
(§1) ED73 iv. and po. are the dose in mg/kg, body weight which inhibits aconitine in female Wistar rats after iv. or po. administration of the test substance up to the occurrence of isolated ventricular extrasystolae. The procedure is also described by K. Femmer et al., in Pharmazie, vol. 31, page 36 (1976). The test substances are administered 2 minutes before the aconitine if given iv., and 60 minutes before the aconitine if given orally. The data is analyzed by the Probit regression analysis with a confidence interval of p=0.05 (values in parentheses).
(§2) Q1 is the ratio of […]. to determine the absorption, and Q2 is the ratio of LD50 iv. /ED73 iv. to determine the therapeutic breadth.

Data set [3] deals with Aconitine (rat). The data set is described as follows: animal or person. It counts as in vivo, female Wistar rats. To be noted: Rattus norvegicus. How it is done: as §1, §2
Where [4] appears, read: ratio of ED73 po. to ED73 iv., rat aconitine, read-out: Q1 (ED73 po. /ED73 iv.), absorption ratio.
Where [5] appears, read: ratio of LD50 iv. to ED73 iv., rat, read-out: Q2 (LD50 iv. /ED73 iv.), therapeutic breadth.

Turning to `CCNC(C)C(=O)N1c2ccccc2CCc2ccc(NC(=O)OCC)cc21.Cl` (stereo not drawn) [Test No. 5, 3-carbethoxyamino-5-(α-ethylaminopropionyl)-10,11-dihydro-5H-dibenz[b,f]azepine hydrochloride], the LD50 in data set [1] worked out at 9.3 mg/kg. The selectivity ratio in data set [2] (setting [4]) amounted to 44; in data set [2] (setting [5]) it was 39. Further, the ED73 in data set [3] (iv, read-out: ED73 iv.) turned out to be 0.16 mg/kg; in data set [3] (po, read-out: ED73 p.o.), 7 mg/kg.

As for `COC(=O)Nc1ccc2c(c1)N(C(=O)C(C)NCCO)c1ccccc1CC2` (stereo not drawn) [compound 9], in data set [1], the LD50 was found to be 55 mg/kg. Moreover, in data set [2] (setting [5]), the selectivity ratio was 14. In addition, the ED73 in data set [3] (iv, read-out: ED73 iv.) is 4 mg/kg.

On to `CCOC(=O)Nc1ccc2c(c1)N(C(=O)C(C)N)c1ccccc1CC2` (stereo not drawn) [compound 13], for which the LD50 in data set [1] came to 21 mg/kg. The selectivity ratio in data set [2] (setting [4]) was 45; in data set [2] (setting [5]), 68. Besides, the ED73 was determined as 0.31 mg/kg in data set [3] (iv, read-out: ED73 iv.) and 14 mg/kg in data set [3] (po, read-out: ED73 p.o.).

For `CCOC(=O)Nc1ccc2c(c1)N(C(=O)C(C)N(C)C)c1ccccc1CC2` (stereo not drawn) [Test No. 1], the LD50 in data set [1] turned out to be 20 mg/kg. Moreover, the selectivity ratio in data set [2] (setting [4]) came to 10; in data set [2] (setting [5]) it was 8. Besides, the ED73 in data set [3] (iv, read-out: ED73 iv.) amounted to 2.4 mg/kg; in data set [3] (po, read-out: ED73 p.o.), 24 mg/kg.

As for `CCNC(C)C(=O)N1c2ccccc2CCc2ccc(NC(=O)OC(C)C)cc21` (stereo not drawn) [compound 7], the LD50 in data set [1] is 10 mg/kg. Besides, the selectivity ratio in data set [2] (setting [4]) turned out to be 61; in data set [2] (setting [5]) it was 30. In addition, the ED73 turned out to be 0.33 mg/kg in data set [3] (iv, read-out: ED73 iv.) and 20 mg/kg in data set [3] (po, read-out: ED73 p.o.).

In the case of `CNC(C)C(=O)N1c2ccccc2CCc2ccc(NC(=O)OC)cc21` (stereo not drawn) [compound 8], the LD50 in data set [1] was found to be 24 mg/kg. For the same compound, the selectivity ratio in data set [2] (setting [4]) stood at 16; in data set [2] (setting [5]), 28. In addition, the ED73 was 0.86 mg/kg in data set [3] (iv, read-out: ED73 iv.) and 14 mg/kg in data set [3] (po, read-out: ED73 p.o.).

As to `CCCNC(C)C(=O)N1c2ccccc2CCc2ccc(NC(=O)OCC)cc21` (stereo not drawn) [compound 12], in data set [1], the LD50 is 2.5 mg/kg. The results for the selectivity ratio in data set [2] (setting [4]) and in data set [2] (setting [5]) were 22 and 16, respectively. The ED73 was 0.16 mg/kg in data set [3] (iv, read-out: ED73 iv.) and 3.5 mg/kg in data set [3] (po, read-out: ED73 p.o.).

Consider `CCOC(=O)Nc1ccc2c(c1)N(C(=O)C(C)NC)c1ccccc1C=C2` (stereo not drawn) [compound 10], for which, in data set [1], the LD50 is 14 mg/kg. Also, the values for the selectivity ratio in data set [2] (setting [4]) and in data set [2] (setting [5]) were 6.5 and 19, respectively. Besides, the ED73 in data set [3] (iv, read-out: ED73 iv.) was determined as 0.75 mg/kg; in data set [3] (po, read-out: ED73 p.o.), 4.9 mg/kg.

As for `CCNC(C)C(=O)N1c2ccccc2C=Cc2ccc(NC(=O)OCC)cc21` (stereo not drawn) [compound 11], the LD50 in data set [1] is 14 mg/kg. The selectivity ratio in data set [2] (setting [4]) and in data set [2] (setting [5]) was 18 in each case. Also, the ED73 in data set [3] (iv, read-out: ED73 iv.) came to 0.8 mg/kg; in data set [3] (po, read-out: ED73 p.o.), 14 mg/kg.

In the case of `CCOC(=O)Nc1ccc2c(c1)N(C(=O)C(C)N(CC)CC)c1ccccc1CC2` (stereo not drawn) [Test No. 2], the median lethal dose (LD50) in data set [1] came to 12 mg/kg. Moreover, the selectivity ratio in data set [2] (setting [4]) and in data set [2] (setting [5]) was 9 each time. Moreover, the ED73 was 1.3 mg/kg in data set [3] (iv, read-out: ED73 iv.) and 11 mg/kg in data set [3] (po, read-out: ED73 p.o.).

As to `CNC(C)C(=O)N1c2ccccc2CCc2ccc(NC(=O)OC(C)C)cc21` (stereo not drawn) [compound 6], in data set [1], the LD50 amounted to 21 mg/kg. For the same compound, the selectivity ratio came out at 22 in data set [2] (setting [4]) and 38 in data set [2] (setting [5]). Besides, the ED73 in data set [3] (iv, read-out: ED73 iv.) amounted to 0.55 mg/kg; in data set [3] (po, read-out: ED73 p.o.), 12 mg/kg.

For `CCOC(=O)Nc1ccc2c(c1)N(C(=O)CN(C)C)c1ccccc1CC2` [Bonnecor, 3carbethoxyamino-5-dimethylaminoacetyl-10,11-dihydro-5H-dibenz[b,f,]azepine, reference compound], the selectivity ratio in data set [2] (setting [4]) was 20; in data set [2] (setting [5]), 39. Besides, the ED73 in data set [3] (iv, read-out: ED73 iv.) came to 0.28 mg/kg; in data set [3] (po, read-out: ED73 p.o.), 5.7 mg/kg.

`CCOC(=O)Nc1ccc2c(c1)N(C(=O)C(C)N1CCOCC1)c1ccccc1CC2` (stereo not drawn) [Test No. 3]: the LD50 in data set [1] was more than 70 mg/kg. The selectivity ratio in data set [2] (setting [5]) was approximately 2. For the same compound, the ED73 in data set [3] (iv, read-out: ED73 iv.) was 47 mg/kg; in data set [3] (po, read-out: ED73 p.o.) it was more than 80 mg/kg.

Turning to `Cc1cccc(C)c1OCC(C)N` (stereo not drawn) [Mexiletin, reference compound], the ED50 in data set [3] (iv, read-out: ED50 iv. (printed in the ED73 p.o. column)) was 91 mg/kg. Besides, the ED73 in data set [3] (iv, read-out: ED73 iv.) was found to be 15 mg/kg.

For `CCOC(=O)Nc1ccc2c(c1)N(C(=O)CCN1CCOCC1)c1ccccc1S2` [Moracizin, reference compound], the values for the selectivity ratio in data set [2] (setting [4]) and in data set [2] (setting [5]) were 102 and 10, respectively. Moreover, the ED73 turned out to be 1.1 mg/kg in data set [3] (iv, read-out: ED73 iv.) and 112 mg/kg in data set [3] (po, read-out: ED73 p.o.).

Consider `CCOC(=O)Nc1ccc2c(c1)N(C(=O)C(C)NC)c1ccccc1CC2` (stereo not drawn) [Test No. 4, 3-Carbethoxyamino-5-(α-methylaminopropionyl)-10,11-dihydro-5H-dibenz[b,f]-azepine], for which the LD50 in data set [1] worked out at 12 mg/kg. The selectivity ratio in data set [2] (setting [4]) worked out at 158; in data set [2] (setting [5]), 100. Also, the ED73 was 0.12 mg/kg in data set [3] (iv, read-out: ED73 iv.) and 19 mg/kg in data set [3] (po, read-out: ED73 p.o.).
